Assay results taken from ChEMBL document CHEMBL5346977, “Discovery of Novel d-(+)-Biotin-Conjugated Resorcinol Dibenzyl Ether-Based PD-L1 Inhibitors for Targeted Cancer Immunotherapy” (J Med Chem, 2023).
The source made the active and inactive calls. No cut-off for these calls is given here.

Legend:
[1] = AUC (0 to t) in Sprague-Dawley rat at 1 mg/kg, iv administered as single dose and measured after 48 hrs by HPLC-MS/MS analysis; assay type: ADME, organism-based; design: dose 1 mg/kg, time 48 hrs, route iv; conditions: in vivo
[2] = Toxicity in allogenic BALB/c mouse implanted with mouse B16-F10 cells assessed as inflammatory cell infiltration in colon at 50 mg/kg, ip by H&E staining based analysis; assay type: organism-based; conditions: in vivo
[3] = Drug concentration in kidney of C57BL/6 mouse implanted with mouse B16-F10 cells at 50 mg/kg, ip measured after 0.5 hrs by UPLC-MS/MS analysis; assay type: ADME, organism-based; conditions: read-out: Ct
[4] = Half-life in Sprague-Dawley rat at 20 mg/kg, po measured after 48 hrs by HPLC-MS/MS analysis; assay type: ADME, organism-based; conditions: in vivo
[5] = tested on: B16-F10; assay: Antitumor activity against mouse B16-F10 cells implanted in BALB/c mouse assessed as reduction in tumor weight at 50 mg/kg, ip administered once daily for 14 days relative to control; assay type: functional; design: scale not given: the % may be the effect or the level left; conditions: time 14 day
[6] = Drug concentration in lung of C57BL/6 mouse implanted with mouse B16-F10 cells at 50 mg/kg, ip measured after 0.5 hrs by UPLC-MS/MS analysis; assay type: ADME, organism-based; conditions: read-out: Ct
[7] = tested on: B16-F10; assay: Antitumor activity against mouse B16-F10 cells implanted in BALB/c mouse assessed as reduction in tumor volume at 50 mg/kg, ip administered once daily for 14 days relative to control; assay type: functional; design: scale not given: the % may be the effect or the level left; conditions: time 14 day
[8] = Drug concentration in brain of C57BL/6 mouse implanted with mouse B16-F10 cells at 50 mg/kg, ip measured after 1 hrs by UPLC-MS/MS analysis; assay type: ADME, organism-based; conditions: read-out: Ct
[9] = tested on: Jurkat; assay: Cytotoxicity against human Jurkat T cells assessed as reduction in cell viability at 1.1 to 10 uM incubated for 48 hrs by CCK-8 assay; assay type: toxicity, cell-based; conditions: dose 1.1-10 µM
[10] = Clearance in C57BL/6 mouse at 50 mg/kg, ip measured after 4 hrs by HPLC-MS/MS analysis; assay type: ADME, organism-based; conditions: in vivo
[11] = Drug concentration in plasma of C57BL/6 mouse implanted with mouse B16-F10 cells at 50 mg/kg, ip measured after 0.5 hrs by UPLC-MS/MS analysis; assay type: ADME, organism-based
[12] = AUC (0 to t) in C57BL/6 mouse at 50 mg/kg, ip measured after 4 hrs by HPLC-MS/MS analysis; assay type: ADME, organism-based; design: time 4 hrs, dose 50 mg/kg, route ip; conditions: in vivo
[13] = Drug concentration in heart of C57BL/6 mouse implanted with mouse B16-F10 cells at 50 mg/kg, ip measured after 0.5 hrs by UPLC-MS/MS analysis; assay type: ADME, organism-based; conditions: read-out: Ct
[14] = AUC (0 to infinity) in Sprague-Dawley rat at 20 mg/kg, po measured after 48 hrs by HPLC-MS/MS analysis; assay type: ADME, organism-based; design: dose 20 mg/kg, time 48 hrs, route po; conditions: in vivo
[15] = tested on: B16-F10; assay: Antitumor activity against mouse B16-F10 cells implanted in syngeneic C57BL/6 mouse assessed as decrease in tumor weight at 50 mg/kg, ip measured after 12 days relative to control; assay type: functional; design: scale not given: the % may be the effect or the level left; conditions: time 12 day
[16] = Drug concentration in liver of C57BL/6 mouse implanted with mouse B16-F10 cells at 50 mg/kg, ip measured after 0.5 hrs by UPLC-MS/MS analysis; assay type: ADME, organism-based; conditions: read-out: Ct
[17] = AUC (0 to t) in Sprague-Dawley rat at 20 mg/kg, po measured after 48 hrs by HPLC-MS/MS analysis; assay type: ADME, organism-based; design: dose 20 mg/kg, time 48 hrs, route po; conditions: in vivo
[18] = MRT (0 to t) in C57BL/6 mouse at 50 mg/kg, ip measured after 4 hrs by HPLC-MS/MS analysis; assay type: ADME, organism-based; conditions: in vivo
[19] = tested on: HepG2; assay: Antitumor immunity activity against human HepG2 cells expressing human PD-L1 co-cultured with human Jurkat T cells expressing human PD-1 assessed as reduction in cell viability at 10 uM incubated for 48 hrs by CCK8 assay relative to control; assay type: functional
[20] = MRT (0 to infinity) in Sprague-Dawley rat at 1 mg/kg, iv administered as single dose and measured after 48 hrs by HPLC-MS/MS analysis; assay type: ADME, organism-based; conditions: in vivo
[21] = Drug concentration in kidney of C57BL/6 mouse implanted with mouse B16-F10 cells at 50 mg/kg, ip measured after 2 hrs by UPLC-MS/MS analysis; assay type: ADME, organism-based; conditions: read-out: Ct
[22] = Drug concentration in lung of C57BL/6 mouse implanted with mouse B16-F10 cells at 50 mg/kg, ip measured after 2 hrs by UPLC-MS/MS analysis; assay type: ADME, organism-based; conditions: read-out: Ct
[23] = biological target: Programmed cell death 1 ligand 1 (Homo sapiens, UniProt Q9NZQ7); assay: Binding affinity to human PD-L1 assessed as dissociation constant by SPR analysis
[24] = Drug concentration in liver of C57BL/6 mouse implanted with mouse B16-F10 cells at 50 mg/kg, ip measured after 1 hrs by UPLC-MS/MS analysis; assay type: ADME, organism-based; conditions: read-out: Ct
[25] = tested on: B16-F10; assay: Antitumor activity against mouse B16-F10 cells implanted in allogenic BALB/c mouse assessed as increase in CXCR3 mRNA level in tumor at 50 mg/kg, ip by qPCR analysis; assay type: functional, organism-based
[26] = Drug concentration in plasma of C57BL/6 mouse implanted with mouse B16-F10 cells at 50 mg/kg, ip measured after 2 hrs by UPLC-MS/MS analysis; assay type: ADME, organism-based
[27] = tested on: B16-F10; assay: Antitumor activity against mouse B16-F10 cells implanted in syngeneic C57BL/6 mouse assessed as inhibition of tumor growth at 50 mg/kg, ip measured after 12 days; assay type: functional, organism-based; conditions: time 12.0 day
[28] = Half-life in Sprague-Dawley rat at 1 mg/kg, iv administered as single dose and measured after 48 hrs by HPLC-MS/MS analysis; assay type: ADME, organism-based; conditions: in vivo
[29] = tested on: B16-F10; assay: Antitumor activity against mouse B16-F10 cells implanted in syngeneic C57BL/6 mouse assessed as decrease in tumor volume at 50 mg/kg, ip measured after 12 days relative to control; assay type: functional; design: scale not given: the % may be the effect or the level left; conditions: time 12 day
[30] = biological target: Programmed cell death protein 1/Programmed cell death 1 ligand 1 (Homo sapiens, UniProt Q9NZQ7); assay: Inhibition of interaction of PD-1 (unknown origin) expressed in Jurkat T cells carrying luciferase reporter under the control of NFAT promoter/PD-L1 (unknown origin) expressed in CHO cells co-expressing TCR ligand and T-cell surrogate pretreated with CHO cells for 0.5 hrs followed by Jurkat T cell addition and measured after 5 hrs by luminescence based analysis
[31] = tested on: B16-F10; assay: Antitumor activity against mouse B16-F10 cells implanted in allogenic BALB/c mouse assessed as decrease in PD-L1 protein level at 50 mg/kg, ip by flow cytometric analysis; assay type: functional, organism-based
[32] = Drug concentration in lung of C57BL/6 mouse implanted with mouse B16-F10 cells at 50 mg/kg, ip measured after 1 hrs by UPLC-MS/MS analysis; assay type: ADME, organism-based; conditions: read-out: Ct
[33] = tested on: B16-F10; assay: Antitumor immunity against mouse B16-F10 cells implanted in allogenic BALB/c mouse assessed as increase in CD3+ CD8+ T cells percentage at 50 mg/kg, ip by flow cytometric analysis; assay type: functional, organism-based
[34] = Drug concentration in lung of C57BL/6 mouse implanted with mouse B16-F10 cells at 50 mg/kg, ip measured after 4 hrs by UPLC-MS/MS analysis; assay type: ADME, organism-based; conditions: read-out: Ct
[35] = MRT (0 to t) in Sprague-Dawley rat at 20 mg/kg, po measured after 48 hrs by HPLC-MS/MS analysis; assay type: ADME, organism-based; conditions: in vivo
[36] = Drug concentration in tumor of C57BL/6 mouse implanted with mouse B16-F10 cells at 50 mg/kg, ip measured after 2 hrs by UPLC-MS/MS analysis; assay type: ADME, organism-based, Neoplasm; conditions: read-out: Ct

Programmed cell death 1 ligand 1, sequence (Q9NZQ7 whole entry): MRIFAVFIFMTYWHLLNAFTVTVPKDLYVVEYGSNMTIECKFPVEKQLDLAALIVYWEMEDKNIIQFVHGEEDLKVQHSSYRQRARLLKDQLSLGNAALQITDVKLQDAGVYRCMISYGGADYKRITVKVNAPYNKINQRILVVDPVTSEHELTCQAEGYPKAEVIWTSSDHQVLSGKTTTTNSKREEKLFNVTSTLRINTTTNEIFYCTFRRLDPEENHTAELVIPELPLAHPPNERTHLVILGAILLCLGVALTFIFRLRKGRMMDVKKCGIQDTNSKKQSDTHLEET
Programmed cell death protein 1/Programmed cell death 1 ligand 1, sequence (Q15116 whole entry): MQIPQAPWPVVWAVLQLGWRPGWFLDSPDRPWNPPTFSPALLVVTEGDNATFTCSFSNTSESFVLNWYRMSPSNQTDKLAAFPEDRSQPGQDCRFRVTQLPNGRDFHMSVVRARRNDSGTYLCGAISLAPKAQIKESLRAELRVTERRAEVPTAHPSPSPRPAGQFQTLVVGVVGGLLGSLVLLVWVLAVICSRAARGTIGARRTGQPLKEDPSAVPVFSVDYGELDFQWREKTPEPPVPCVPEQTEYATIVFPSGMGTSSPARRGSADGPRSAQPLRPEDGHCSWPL
Programmed cell death protein 1/Programmed cell death 1 ligand 1, sequence (Q9NZQ7 whole entry): as the sequence (Q9NZQ7 whole entry) above

Cc1c(COc2cc(OCc3cccc(C#N)c3)c(CN3CCCCC3C(=O)NCCNC(=O)CCCC[C@@H]3SC[C@@H]4NC(=O)N[C@@H]43)cc2Cl)cccc1-c1ccccc1 (stereo partly specified)
AUCt [1]: 719 ng·h/mL | Activity [2]: Non-Toxic | concentration at 0.5 h [3]: 134 ng/mL | half-life [4]: 2.6 h | Activity [5]: 66.1% | concentration at 0.5 h [6]: 285 ng/mL | Activity [7]: 76.5% | concentration at 1 h [8]: 3 ng/mL | Activity [9]: Non-Toxic | CL [10]: 122.6 mL/min/kg | concentration at 0.5 h [11]: 910 ng/mL | AUCt [12]: 4673.237 µg/L/h | concentration at 0.5 h [13]: 4.7 ng/mL | AUC [14]: 1170 ng·h/mL | Activity [15]: 39.1% | concentration at 0.5 h [16]: 1970 ng/mL | AUCt [17]: 1160 ng·h/mL | MRT last at 4 h [18]: 2.24 h | Activity [19]: 2.7% | MRT inf [20]: 19.9 h | concentration at 2 h [21]: 208 ng/mL | concentration at 2 h [22]: 94.9 ng/mL | Kd [23]: 43.7 nM | concentration at 1 h [24]: 1980 ng/mL | Activity [25]: Active | concentration at 2 h [26]: 1400 ng/mL | Activity [27]: Active | half-life [28]: 18.1 h | Activity [29]: 52.6% | EC50 [30]: 920 nM | Activity [31]: Active | concentration at 1 h [32]: 193 ng/mL | Activity [33]: Active | concentration at 4 h [34]: 143 ng/mL | MRT last at 48 h [35]: 6.9 h | concentration at 2 h [36]: 404 ng/mL
